Assay results reported in doi:10.1101/2022.12.01.518659v1 (biorxiv, 2022).
Counter-ions that a name gives are not always drawn.

The compounds below were run against Atx3 13Q (Homo sapiens, UniProt P54252, OF/POLYQ/Q/TRACT) (assay: ThT fluorescence aggregation assay).
Assay type: biochemical

Sequence of Atx3 13Q (P54252 whole entry, change not shown): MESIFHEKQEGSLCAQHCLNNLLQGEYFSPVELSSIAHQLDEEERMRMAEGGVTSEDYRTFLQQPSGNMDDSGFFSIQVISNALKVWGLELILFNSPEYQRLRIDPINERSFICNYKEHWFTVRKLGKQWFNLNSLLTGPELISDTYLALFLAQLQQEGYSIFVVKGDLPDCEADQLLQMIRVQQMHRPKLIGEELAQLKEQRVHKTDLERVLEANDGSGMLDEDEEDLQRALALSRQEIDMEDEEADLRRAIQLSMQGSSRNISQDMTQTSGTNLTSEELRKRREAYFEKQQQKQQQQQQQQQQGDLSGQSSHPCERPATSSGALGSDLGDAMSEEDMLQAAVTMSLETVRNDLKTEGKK

| SMILES | IC50 [nM] |
| --- | --- |
| Cc1cc(C2CCCCC2)n(O)c(=O)c1 [ciclopirox ethanolamine] | 80 |
| NCCc1ccc(O)c(O)c1 [dopamine hydrochloride] | 110 |
| O=C(O)CN(CCN(CC(=O)O)CC(=O)O)CCN(CC(=O)O)CC(=O)O [pentetic acid] | 120 |
| Cc1ccc(C(=O)c2cc(O)c(O)c([N+](=O)[O-])c2)cc1 [tolcapone] | 20 |
